Experimental data published in patent publication US8088742B2, “Polyol-glycoside compositions for the skin” (Societe d'Exploitation de Produits pour les Industries …, priority 2002, dated 2012).

Experiments:
[1] = test system: skin; assay: Evaluation on the skin of acute skin irritation (Primary Cutaneous Irritation index); assay type: in vivo; conditions: for PCI index: Primary Cutaneous Irritation index; for Irritation classification: scale of the protocol in Journal Officiel de la République Francaise of Feb. 21, 1982
Protocol: The skin tolerance of the various polyol-glycosides was evaluated by means of a study of “evaluation on the skin of acute skin irritation”, carried out by an independent pharmaceutical and cosmetic consultancy-expertise company.
The Primary Cutaneous Irritation (PCI) index measurements, carried out according to the same protocol, are contained in the following table:
Each compound studied is classified, in view of the results obtained under the selected experimental conditions, nonirritant for the skin, with reference to the scale proposed in the protocol described in the Journal Officiel de la République Francaise [Official Journal of the French Republic] of Feb. 21, 1982.

[2] = test system: normal human dermal fibroblast cultures; assay: In vitro measurement of the production of hyaluronic acid in fibroblast cultures; assay type: cell-based; conditions: 5 days of incubation; for effect on the amount of extracellular hyaluronic acid (in words): 0.01% and 0.1% (w/v)
Protocol: B—In Vitro Measurement of the Effect of the Polyol-Glycosides According to the Invention on the Production of Hyaluronic Acid
To confirm the moisturizing activity of the polyol-glycosides according to the invention, the effect of these products on the amount of hyaluronic acid was measured. It is in fact known that hyaluronic acid is a major non-sulfated glycosaminoglycan which plays an essential role in moisturizing the skin, by means of its ability to attach up to 1000 times its weight in water.
The amount of hyaluronic acid is measured in normal human dermal fibroblast cultures.
The cells are incubated for 5 days in the presence of the test products solubilized in the incubation medium.
At the end of this incubation, the extracellular media, into which the hyaluronic acid is secreted, are removed.
The hyaluronic acid is stained with a specific dye, STAINS ALL ((1-ethyl-2-[3-(1-ethylnaphtho[1,2-d]thiazolin-2-ylidene)-2-methylpropenyl]naphtho[1,2-d]thiazolium) bromide, provided by Sigma), which interacts with the hyaluronic acid to produce a change of absorption spectrum between 620 and 660 nm, observed by means of a spectrophotometer. A standard range of hyaluronic acid is effected in parallel.
The polyols and the polyol-glucosides are tested in aqueous solution at 0.01% and 0.1% (w/v).
D0: seeding of the fibroblasts (24-well culture plates, 15 300 cells/well);
D3: incubation of the products tested, diluted in the fibroblast incubation medium;
D8: removal of the fibroblast incubation media, assaying of the hyaluronic acid.
At the end of the 5 days of incubation in the presence of the products, the incubation media are removed and incubated in the presence of STAINS ALL. The colorimetric reaction is visualized by adding water.
The quantification is carried out by spectrophotometry for a wavelength of 630 nm.
A standard range of hyaluronic acid (0 to 12.5 μg/ml) is effected in parallel.
The results are expressed in μg/ml of extracellular hyaluronic acid.
The results which were obtained, expressed as percentage increase in the amount of extracellular hyaluronic acid relative to the control group, are reported in the following table: […]

[3] = test system: human skin explant; assay: In vitro measurement of the synthesis of epidermal ceramides in human skin explant model; assay type: cell-based; conditions: for effect on the neosynthesis of ceramides 1 and 2 (in words): 24 hours on human skin explants; for percentage increase in the amount of ceramide 1 relative to the control group / percentage increase in the amount of ceramide 2 relative to the control group: topical 3% in cream gel (EGF 10 ng/ml in culture medium), 24 hours, 14C-acetate labeling
Protocol: C—In Vitro Measurement of the Xylityl Glucoside According to the Invention on the Synthesis of Epidermal Ceramides
The study is carried out in vitro in a human skin explant model. The products, formulated at 3% in a cream gel, are applied to the surface of the skin explants for 24 hours. The neosynthesis of the epidermal lipids is studied by radioactive labeling (carbon 14-labeled acetate) of the neosynthesized lipids, followed by thin layer chromatography to separate the various types of lipids and in particular the ceramides.
The xylityl glucoside according to example 1 of the invention, formulated at 3% in a cream gel comprising 2% of Sepigel® 305, 5% of Lanol 99, and qs of water.
Epidermal growth factor (EGF), known to increase the synthesis of ceramides, which constitutes a reference molecule for this test. The EGF is tested at 10 ng/ml in the skin explant culture medium.
A commercially available formulation containing lactic acid, which constitutes a reference for the test, lactic acid being known to increase the synthesis of ceramides.
The study is carried out on disks of human skin originating from cosmetic surgery (abdominoplasty, person). Disks 8 mm in diameter are produced using a hole punch and deposited onto culture inserts placed in culture wells containing an appropriate nutritive medium (MEM/M199 medium (¾, ¼, v/v) supplemented with penicillin (50 IU/ml, streptomycin (50 μg/ml), sodium bicarbonate (0.2% w/v), serum (2% v/v) and carbon 14-labeled acetate (1 μCi/ml)).
The products are tested by topical application (except for the EGF) for 24 hours.
At the end of the 24 hours of incubation, the skin explants are rinsed with phosphate buffered saline. For each disk of skin, the dermis is dissociated from the epidermis by controlled heat shock (1 min at 70° C.). The epidermal lipids are extracted by a partition between an organic phase (methanol/chloroform (1:2)) and an aqueous phase (0.25 M potassium chloride). The organic phase is then evaporated under vacuum and the residue is taken up in a chloroform/methanol (2:1) mixture.
The various epidermal lipids are then separated by thin layer chromatography (silica 60): chloroform/acetone/methanol (38:2:10); chloroform/acetone/methanol (40:5:5); chloroform/ethyl acetate/diethyl ether/methanol (36:10:3:1). The radioactivity of the fractions thus separated is counted with a radioactivity analyzer (Storm, Amersham).
The results are expressed as % variation relative to the control group.

[4] = test system: skin (epidermis) in a normal volunteer; assay: In vivo measurement of the moisturization of the skin with Hydrascan; design: species or system human; conditions: for effect on the degree of moisturization of the epidermis (in words) / Degree of moisturization of the skin measured with Hydrascan, Cycle 1: stratum corneum + superficial epidermis / Degree of moisturization of the skin measured with Hydrascan, Cycle 2: superficial + middle epidermis / Degree of moisturization of the skin measured with Hydrascan, Cycle 3: entire epidermis: 3% in cream gel; for effect on the degree of moisturization of the epidermis (in words): 8 h after application; for Degree of moisturization of the skin measured with Hydrascan, Cycle 1: stratum corneum + superficial epidermis / Degree of moisturization of the skin measured with Hydrascan, Cycle 2: superficial + middle epidermis / Degree of moisturization of the skin measured with Hydrascan, Cycle 3: entire epidermis: percentage increase relative to placebo zone, topical 20 mg/cm2, 8 h after application, mean of six volunteers
Protocol: A-In Vivo Measurement of the Moisturization of the Skin in a Normal Volunteer by Means of […] effect on the degree of moisturization of the skin of various polyol-glycosides according to the invention, of glyceryl glucoside and of various polyols was measured and compared in humans. […] This device comprises a micro-effusimeter connected to a flexible sensor and makes it possible to produce a thermal wave which propagates within the epidermis, and to register the variation in temperature during the pulse. […] 5% (weight/volume) of Lanol® 99 (isononyl isononanoate); 0.5% (weight/volume) of […]® HB (phenoxy-ethanol, methyl-, ethyl-, propyl-, butylparaben). A cream gel having the same composition but containing no test product is used as a placebo. The study is carried out on three groups of six volunteers, as a double-blind study, i.e. neither the experimenter nor the volunteer knows the identity of the test product. The following four skin zones are defined on the forearms of each volunteer: The products are applied topically at a rate of 20 mg/cm^2, the measurements being carried out 8 h after application. […] The degree of moisturization is measured by means of […]®, on each skin zone defined above, the values obtained for each of the three cycles being recorded and expressed as percentage increase in moisturization of the skin relative to the zone treated with the placebo.

Row | Molecule | PCI index [1] | Irritation classification [1] | effect on the amount of extracellular hyaluronic acid (in words) [2] | percentage increase in the amount of extracellular hyaluronic acid relative to the control group ([2]; concentration 0.01% (w/v)) | percentage increase in the amount of extracellular hyaluronic acid relative to the control group ([2]; concentration 0.1% (w/v)) | effect on the neosynthesis of ceramides 1 and 2 (in words) [3] | percentage increase in the amount of ceramide 1 relative to the control group [3] [%] | percentage increase in the amount of ceramide 2 relative to the control group [3] [%] | effect on the degree of moisturization of the epidermis (in words) [4] | increase in degree of moisturization greater than that obtained with glycerol ([4]; difference to glycerol across the epidermal layers) [%] | Degree of moisturization of the skin measured with Hydrascan, Cycle 1: stratum corneum + superficial epidermis [4] | Degree of moisturization of the skin measured with Hydrascan, Cycle 2: superficial + middle epidermis [4] | Degree of moisturization of the skin measured with Hydrascan, Cycle 3: entire epidermis [4]
1 | Xylityl Glucoside [Example 1] | 0 | Nonirritant | increase | +158% | +161% | significantly increases | 295.7 | 236.5 | very substantially increases | 14 to 20 | +28% | +33% | +30%
2 | OCC(O)CO [Glycerol, glycerol] | – | – | no effect | – | – | not observed | – | – | – | – | – | – | –
3 | OC[C@@H](O)[C@@H](O)CO [Erythritol, erythritol] | – | – | no effect | <10% | <10% | – | – | – | – | – | +9% | +9% | +9%
4 | O=C[C@H](O)[C@@H](O)[C@H](O)CO [Xylose, xylose] | – | – | – | – | – | – | – | – | no moisturizing effectiveness | – | <5% | <5% | <5%
5 | OC[C@@H](O)[C@H](O)[C@@H](O)CO [Xylitol, xylitol] | – | – | no effect | <10% | <10% | – | – | – | no effect | – | <5% | <5% | <5%
6 | Glyceryl Glucoside [Comparative example] | 0 | Nonirritant | does not increase | <10% | <10% | – | – | – | – | – | <5% | <5% | <5%
7 | Erythrityl Glucoside [Example 2] | 0 | Nonirritant | – | +64% | <10% | – | – | – | – | – | +18% | +11% | +12%
8 | EGF: Epidermal growth factor, known to increase the synthesis of ceramides, reference molecule for this test | – | – | – | – | – | act, but less effectively | 166.1 | 152.3 | – | – | – | – | –
